# Measurements taken from patent US6162810A, “Inadone and tetralone compounds for inhibiting cell proliferation” (The Regents of the University of California, priority 1998, dated 2000).
# Entries after “also recorded” stand apart in the source; their conditions may differ.
# Experiments:
# [1] = test system: tubulin (colchicine-binding site); assay: Inhibition of [3H]colchicine binding to tubulin; set-up: species or system bovine; conditions: 5 μM compound, 5 μM [3H]colchicine, 1 μM tubulin, n=4
# Procedure: (§1) To evaluate the effects of the TB compounds of the invention on tubulin, bovine brain tubulin (2.2 mg/ml) was incubated in PEM80 (80 mM K-PIPES, 1 mM MgCl2, 1 mM EGTA) containing 10% glycerol and 2 mM GTP for 30 minutes at 37° C. in the presence or absence of 20 μg/ml nocodazole, 1 mM paclitaxel, or TB compound no. IK-178 at various concentrations. Tubulin polymer was resolved from monomer by sedimentation through a cushion of 60% glycerol in PEM80 at 70,000 rpm for 30 min at 37° C. in a Beckman TLA100 rotor. A fraction of the supernatant was removed for analysis, the cushion washed and then aspirated, and the pellet resuspended in SDS-PAGE sample buffer. Equal proportions of the supernatant and the pellet were then resolved by SDS-PAGE and tubulin visualized by staining with Coomassie blue.
# (§2) The quantitative assessment of drug inhibition of tubulin polymerization and evaluation of inhibition of [^3 H]colchicine binding to tubulin were then performed. […] Samples were placed on ice and GTP (0.4 mM) was added. Reaction mixtures were transferred to 0° C. cuvettes in Gilford 250 spectrophotometers, baselines were establishes/d, and the temperature was jumped to 30° C. with electronic temperature controllers (about 60 sec). The IC^50 was defined as the drug concentration required to inhibit extent of assembly after a 20 min incubation. […]
# KB-GRC-1 and MV522/Q6 = assay: MTT proliferation assay of mdr1 overexpressing transfectomas; assay type: cell-based, human; conditions: 72 h
# CEM = assay: Growth inhibition of CEM (wild type); assay type: cell-based; conditions: Homo sapiens, CCRF-CEM, ±1 SD, n>5
# tubulin [2] = assay: Inhibition of [3H]vinblastine binding to tubulin; set-up: species or system bovine; conditions: single experiment
# Procedure: The TB compounds of the invention (as represented by TB compound IK-178), are nearly as potent as the strong tubulin assembly inhibitor, combretastatin A-4 (CS-A4). In particular, the GI^50 inhibitory concentration of CS-A4 was 1.2±0.03 μM (n=4), while that of TB compound IK-178 was 1.7±0.1 μM (n=3).
# MDA-MB-321 = assay: Growth inhibition of MDA-MB-321 (wild type); assay type: cell-based; conditions: Homo sapiens, ±1 SD, n>5
# caspase-3 in HL-60 cells = assay: Caspase-3 activation in HL-60 cells; assay type: cell-based, human
# MCF-7 wild type cells = assay: Cell death of stationary phase MCF-7 wild type cells (FACS); assay type: cell-based, human; conditions: MCF-7 wild type (parental) cells
# KB-3-1 = assay: Growth inhibition of KB-3-1 (wild type); assay type: cell-based; conditions: Homo sapiens, ±1 SD, n>5
# HL-60/ADR cells = assay: Apoptosis of HL-60/ADR cells (FACS); assay type: cell-based, human
# Procedure: FACS analysis was performed to determine the influence of the TB compounds of the invention on growth cycling of cells (the analysis was performed on harvested cells, fixed in ice-cold 70% ethanol solution, then treated with 100 μg/ml of RNAse A and stained with 50 μg/ml propidium iodide for 1 h at 37° C. DNA content of the cells was analyzed by flow cytometry (Becton Dickinson FACScalibur), and the cell cycle distribution was calculated with the program ModFit LT 2.0 (Verity Software)).
# First, the stage at which the TB compounds of the invention arrest growth of HL-60 and HL-60/ADR cells was determined by FACS analysis and caspase-3 activation as described above.
# KB-GRC-1 = assay: Growth inhibition of KB-GRC-1 (MDR); assay type: cell-based; conditions: Homo sapiens, MDR1, ±1 SD, n>5
# [3] = test system: HL-60/ADR and MDF-7/ADR cells; assay: MTT assay, visual comparison of cells with and without MDR (FIGS. 1 and 2); assay type: cell-based, human; conditions: 3 days
# [4] = test system: caspase-3 in HL-60/ADR cells; assay: Caspase-3 activation in HL-60/ADR cells; assay type: cell-based, human; conditions: 10 nM
# human cancer cell lines = assay: Hollow fiber assay, in vivo growth inhibitory activity; set-up: species or system human cells in mice
# Procedure: To screen the compounds of the invention for growth inhibitory activity, a hollow fiber assay test was performed according to the protocol established by the National Cancer Institute's Developmental Therapeutics Program.
# Briefly, according to the National Cancer Institute, the hollow fiber assay is performed as follows:
# For these assays, human tumor cells are cultivated in polyvinylidene fluoride (PVDF) hollow fibers, and a sample of each cell line is implanted into each of two physiologic compartments (intraperitoneal and subcutaneous) in mice. Each test mouse receives a total of 6 fibers (3 intraperitoneally and 3 subcutaneously) representing 3 distinct cancer cell lines. Three mice are treated with potential antitumor compounds at each of 2 test doses by the intraperitoneal route using a QD×4 treatment schedule. Vehicle controls consist of 6 mice receiving the compound diluent only. The fiber cultures are collected on the day following the last day of treatment. To assess anticancer effects, viable cell mass is determined for each of the cell lines using a formazan dye (MTT) conversion assay. From this, the % T/C can be calculated using the average optical density of the compound treated samples divided by the average optical density of the vehicle controls. In addition, the net increase in cell mass can be determined for each sample as a sample of fiber cultures are assessed for viable cell mass on the day of implantation into mice. Thus, the cytostatic and cytocidal capacities of the test compound can be assessed.
# This represents a total of 4 experiments since each experiment contains 3 cell lines. The data are reported as % T/C for each of the 2 compound doses against each of the cell lines with separate values calculated for the intraperitoneal and subcutaneous samples.
# Compounds are selected for further in vivo testing in standard subcutaneous xenograft models on the basis of several hollow fiber assay criteria. […] The intraperitoneal and subcutaneous samples are scored separately so that criteria (1) and (2) can be evaluated. […]
# [5] = test system: caspase-3 in MCF-7/ADR cells; assay: Caspase-3 activation in noncycling MCF-7/ADR cells; assay type: cell-based, human
# Procedure: Briefly, cell extracts were prepared from 5×10^6 cells in 100 μl of a lysis buffer (25 mM TrisHCl, pH 7.5, 150 mM KCl, 5 mM EDNA, 1% Nonidet P-40, 0.5% sodium deoxycholate, and 0.1% SDS) and maintained on ice for 10 min, followed by centrifugation at 14,000×g for 5 min at 4° C. The resulting supernatants were collected and frozen at -80° C. or used immediately. Lysates (20 μl, 5-10 μg of total protein) were mixed with 30 μl of assay buffer (50 mM PIPES, 50 mM KC, 5 mM EGTA, 2 mM MgCl2, 1 mM dithiothreitol (DTT), and 0.1 phenylmethanesulfonyl fluoride (PMSF)), containing 100 μM of Z-DEVD-AFC. Caspase-3-like protease activity was measured at 37° C. using a spectrofluorometric plate reader (Perkin-Elmer, LS50B) in the kinetic mode with excitation and emission wavelengths of 400 and 505 nm, respectively. Activity was measured by the release of […] from the synthetic substrate Z-DEVD-AFC (Biomol, Plymouth Meeting, Pa.).
# MV522/Q6 = assay: Growth inhibition of MV522/Q6 (MDR); assay type: cell-based; conditions: Homo sapiens, ±1 SD, n>5
# MCF-7 = assay: Growth inhibition of MCF-7 (wild type); assay type: cell-based; conditions: Homo sapiens, MCF7, ±1 SD, n>5
# MCF-7/ADR = assay: Growth inhibition of MCF-7/ADR (MDR); assay type: cell-based; conditions: Homo sapiens, NCI/ADR-RES, ±1 SD, n>5
# MES-SA/DX5 = assay: Growth inhibition of MES-SA/DX5 (MDR); assay type: cell-based; conditions: Homo sapiens, ±1 SD, n>5
# MV522 = assay: Growth inhibition of MV522 (wild type); assay type: cell-based; conditions: Homo sapiens, ±1 SD, n>5
# HL-60 = assay: Growth inhibition of HL-60 (wild type); assay type: cell-based; conditions: Homo sapiens, ±1 SD, n>5
# tubulin [6] = assay: Inhibition of tubulin assembly; assay type: biochemical, bovine; conditions: 10 μM tubulin, 20 min incubation, 30° C.; read-out: GI50 inhibitory concentration (tubulin assembly)
# Procedure: as §1, §2
# MCF-7/ADR cells = assay: Cell death of stationary phase MCF-7/ADR cells (FACS); assay type: cell-based, human; conditions: noncycling MCF-7/ADR cells
# HL-60/ADR = assay: Growth inhibition of HL-60/ADR (MDR); assay type: cell-based; conditions: Homo sapiens, HL60/ADR, ±1 SD, n>5
# CEM/VLB100 = assay: Growth inhibition of CEM/VLB100 (MDR); assay type: cell-based; conditions: Homo sapiens, ±1 SD, n>5
# [7] = test system: normal peripheral blood lymphocytes; assay: Viability of normal peripheral blood lymphocytes; assay type: cell-based; conditions: as much as 1000-fold higher concentrations, 72 hours
# MDA3-1/gp170 = assay: Growth inhibition of MDA3-1/gp170 (MDR); assay type: cell-based; conditions: Homo sapiens, MDR1, ±1 SD, n>5
# MES-SA = assay: Growth inhibition of MES-SA (wild type); assay type: cell-based; conditions: Homo sapiens, ±1 SD, n>5
smiles,measurement,setting,value
COc1cc2c(c(N)c1OC)C(=O)/C(=C\c1cc(C)c(O)c(C)c1)C2 [IK-178],inhibition of [3H]colchicine binding,[1],95±2%
same,sensitivity of transfectomas overexpressing mdr1,KB-GRC-1 and MV522/Q6,retained complete sensitivity
same,GI50,CEM,12 ± 2 nM
same,inhibition of [3H]vinblastine binding to tubulin,tubulin [2],Neither agent inhibited
same,GI50,MDA-MB-321,10 ± 3 nM
same,caspase-3 activity,caspase-3 in HL-60 cells; HL-60 cells,only a slight increase
same,caspase-3 activity relative to the level in the multidrug resistant cells,caspase-3 in HL-60 cells; HL-60 wild type vs HL-60/ADR,about a quarter
same,cell death / apoptosis,MCF-7 wild type cells,growth-arrested but did not show any apoptotic features
same,GI50,KB-3-1,7 ± 2 nM
same,apoptosis,HL-60/ADR cells,became apoptotic; also recorded: did induce
same,GI50,KB-GRC-1,7 ± 3 nM
same,sensitivity with acquisition of MDR,[3],"retained, and even enhanced"
same,time of maximum caspase-3 activity,[4],24 h
same,caspase-3 activity,[4]; compared with untreated cells,time-dependent increase in caspase-3 activity
same,TOTAL SCORE (IP + SC),human cancer cell lines; IP + SC,24
same,IP SCORE,"human cancer cell lines; intraperitoneal fibers, intraperitoneal treatment QD×4",18
same,SC SCORE,"human cancer cell lines; subcutaneous fibers, intraperitoneal treatment QD×4",6
same,activation of caspase-3,[5],activation of caspase-3
same,GI50,MV522/Q6,8 ± 2 nM
same,GI50,MCF-7,20 ± 5 nM
same,GI50,MCF-7/ADR,4 ± 1 nM
same,GI50,MES-SA/DX5,12 ± 3 nM
same,GI50,MV522,13 ± 3 nM
same,GI50,HL-60,40 ± 3 nM
same,GI50,tubulin [6],1700 ± 100 nM
same,cell death / apoptosis,MCF-7/ADR cells,appearance of an apoptotic sub-G0 /G1 peak
same,cell death / apoptosis,MCF-7/ADR cells; listed as indanocine,die following treatment
same,GI50,HL-60/ADR,2 ± 0.2 nM
same,GI50,CEM/VLB100,20 ± 1 nM
same,loss of viability,[7],no loss of viability
same,GI50,MDA3-1/gp170,25 ± 2 nM
same,GI50,MES-SA,85 ± 6 nM
